pKi: −log10 of the molar value. Non-standard residues stand in square brackets, D forms with d. Residues, ends and D or L forms follow the SMILES beside them. ξ: configuration not given here. *: point of attachment. Cbz = O=C(OCc1ccccc1)*; ξL = CC(C)CC(N)C(=O)O; ξA = CC(N)C(=O)O
Key:
Pepsin A [1] = target: T1, Pepsin A (Sus scrofa, UniProt P00791); assay: Inhibition of porcine pepsin
Pepsin A (Sus scrofa) [2] = target: Pepsin A (Sus scrofa) (UniProt P00791); assay: Slow binding inhibition characteristic of the pepstatin-pepsin interaction; - indicates that the binding is not slow.
Pepsin A (Sus scrofa) [3] = target: Pepsin A (Sus scrofa) (UniProt P00791)
Pepsin A (Sus scrofa) [4] = target: Pepsin A (Sus scrofa) (UniProt P00791); remark: listed apart in the source
Pepsin A [5] = target: T1, Pepsin A; assay: Inhibitory activity against porcine pepsin substrate Z-His-Phe-DPhe-oMe was determined
Pepsin A [6] = target: T1, Pepsin A; assay: Inhibitory activity against porcine pepsin was determined
Pepsin A (Sus scrofa) [7] = target: Pepsin A (Sus scrofa) (UniProt P00791); assay: The kinetic constant (Kcat)of porcine pepsin substrate Z-His-Phe-Phe-oMe was determined
[8] = Ratio of kinetic constant kcat / KM of porcine pepsin
Pepsin A (Sus scrofa) [9] = target: Pepsin A (Sus scrofa) (UniProt P00791); assay: The kinetic constant (Kcat)of porcine pepsin substrate Z-His-Phe-Gly-oMe was determined
Pepsin A (Sus scrofa) [10] = target: Pepsin A (Sus scrofa) (UniProt P00791); assay: Slow binding inhibition characteristic of the pepstatin-pepsin interaction; indicates that the binding is not slow.
Pepsin A (Sus scrofa) [11] = target: Pepsin A (Sus scrofa) (UniProt P00791); assay: The kinetic constant (Kcat)of porcine pepsin substrate Z-His-Phe-Leu-oMe was determined
Pepsin A (Sus scrofa) [12] = target: Pepsin A (Sus scrofa) (UniProt P00791); assay: The kinetic constant (Kcat)of porcine pepsin substrate Z-His-Phe-Ala-oMe was determined

Sequence of Pepsin A (Sus scrofa) (P00791 60-385 limits assumed): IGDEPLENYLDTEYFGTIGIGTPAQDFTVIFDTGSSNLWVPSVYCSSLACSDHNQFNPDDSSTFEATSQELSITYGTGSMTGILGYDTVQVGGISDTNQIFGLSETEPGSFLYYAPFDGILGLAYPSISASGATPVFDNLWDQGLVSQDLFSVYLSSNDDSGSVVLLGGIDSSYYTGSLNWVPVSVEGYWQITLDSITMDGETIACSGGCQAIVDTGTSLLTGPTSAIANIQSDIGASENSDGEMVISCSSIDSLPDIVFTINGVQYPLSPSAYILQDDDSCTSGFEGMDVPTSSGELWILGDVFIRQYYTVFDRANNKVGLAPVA
T1 sequence (P00791 whole entry): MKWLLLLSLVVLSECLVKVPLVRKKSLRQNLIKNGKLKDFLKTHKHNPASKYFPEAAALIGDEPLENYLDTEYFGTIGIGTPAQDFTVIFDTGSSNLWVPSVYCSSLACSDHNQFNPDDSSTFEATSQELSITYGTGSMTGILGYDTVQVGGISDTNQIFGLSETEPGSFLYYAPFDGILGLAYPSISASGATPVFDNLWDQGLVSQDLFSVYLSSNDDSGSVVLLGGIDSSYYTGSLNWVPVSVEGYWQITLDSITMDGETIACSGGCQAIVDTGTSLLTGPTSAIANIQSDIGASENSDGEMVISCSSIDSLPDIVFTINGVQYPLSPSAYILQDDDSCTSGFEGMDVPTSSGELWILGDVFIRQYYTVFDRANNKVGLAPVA

Structure (SMILES) | pKi (Pepsin A [1]) | Slow binding (Pepsin A (Sus scrofa) [2]) | further results
CC(C)CCNC(=O)C(C)NC(=O)C(CC(=O)[C@H](CC(C)C)NC(=O)C(NC(=O)CC(C)C)C(C)C)Cc1ccccc1 (stereo not given in full) | 7.14 | binding is not slow | –
CC(C)CCNC(=O)CNC(=O)C[C@H](O)C(CC(C)C)NC(=O)C(NC(=O)CC(C)C)C(C)C (stereo not given in full) | 7.25 | binding is not slow | –
CC(C)CCNC(=O)C(C)NC(=O)CC[C@H](O)[C@H](CC(C)C)NC(=O)C(NC(=O)CC(C)C)C(C)C (stereo not given in full) | 7.30 | – | Slow binding (Pepsin A (Sus scrofa) [3]): binding is not slow
CC(C)CCNC(=O)C(C)C[C@H](O)[C@H](CC(C)C)NC(=O)C(NC(=O)CC(C)C)C(C)C (stereo not given in full) | 7.57 | – | Slow binding (Pepsin A (Sus scrofa) [4]): binding is not slow
CC(C)CCNC(=O)C(C)NC(=O)C(Cc1ccccc1)C[C@H](O)[C@H](CC(C)C)NC(=O)C(NC(=O)CC(C)C)C(C)C (stereo not given in full) | 8.60 | – | –
COC(=O)[C@@H](Cc1ccccc1)NC(=O)[C@H](Cc1ccccc1)NC(=O)[C@H](Cc1c[nH]cn1)NC(=O)OCc1ccccc1 | – | – | pKi (Pepsin A [5]): 3.55
CC(C)CCNC(=O)C(C)NC(=O)[C@@H](CC(=O)[C@H](CC(C)C)NC(=O)C(NC(=O)CC(C)C)C(C)C)Cc1ccccc1 (stereo not given in full) | 6.07 | binding is not slow | –
CC(C)CCNC(=O)C(C)NC(=O)C[C@H](O)C(CC(C)C)NC(=O)C(NC(=O)CC(C)C)C(C)C (stereo not given in full) | – | – | pKi (Pepsin A [6]): 8.52
COC(=O)C(Cc1ccccc1)NC(=O)[C@H](Cc1ccccc1)NC(=O)[C@H](Cc1c[nH]cn1)NC(=O)OCc1ccccc1 (stereo not given in full) | – | – | k cat (Pepsin A (Sus scrofa) [7]): 170 ms-1; Ratio [8]: 520
COC(=O)CNC(=O)[C@H](Cc1ccccc1)NC(=O)[C@H](Cc1c[nH]cn1)NC(=O)OCc1ccccc1 (Cbz-His-Phe-Gly-OMe) | – | – | k cat (Pepsin A (Sus scrofa) [9]): 2.1 ms-1; Ratio [8]: 1.3
CC(C)CCNC(=O)C(C)NC(=O)[C@H](Cc1ccccc1)C[C@H](O)[C@H](CC(C)C)NC(=O)C(NC(=O)CC(C)C)C(C)C (stereo not given in full) | 6.85 | – | Slow binding (Pepsin A (Sus scrofa) [10]): indicates that the binding is not slow
CC(C)CCNC(=O)C(C)NC(=O)C(C)C[C@H](O)[C@H](CC(C)C)NC(=O)C(NC(=O)CC(C)C)C(C)C (stereo not given in full) | 8.52 | – | –
COC(=O)C(CC(C)C)NC(=O)[C@H](Cc1ccccc1)NC(=O)[C@H](Cc1c[nH]cn1)NC(=O)OCc1ccccc1 (stereo partly drawn) (Cbz-His-Phe-[ξL]-OMe) | – | – | k cat (Pepsin A (Sus scrofa) [11]): 5.2 ms-1; Ratio [8]: 10
CC(C)CCNC(=O)C(C)NC(=O)CC(=O)C(CC(C)C)NC(=O)C(NC(=O)CC(C)C)C(C)C (stereo not given) | 7.25 | binding is not slow | –
CC(C)CCNC(=O)C(C)NC(=O)C(C)CC(=O)[C@H](CC(C)C)NC(=O)C(NC(=O)CC(C)C)C(C)C (stereo not given in full) | 7.57 | binding is not slow | –
CC(C)CCNC(=O)C(C)NC(=O)CCC(=O)[C@H](CC(C)C)NC(=O)C(NC(=O)CC(C)C)C(C)C (stereo not given in full) | 5.67 | binding is not slow | –
COC(=O)C(C)NC(=O)[C@H](Cc1ccccc1)NC(=O)[C@H](Cc1c[nH]cn1)NC(=O)OCc1ccccc1 (stereo partly drawn) (Cbz-His-Phe-[ξA]-OMe) | – | – | k cat (Pepsin A (Sus scrofa) [12]): 3.7 ms-1; Ratio [8]: 2.1

— ChEMBL document CHEMBL1123676, “Synthetic and enzyme inhibition studies of pepstatin analogues containing hydroxyethylene and ketomethylene dipeptide isosteres” (J Med Chem, 1987)
